For test [1], the system named is MV4:11 human cancer cell lines. The test can be described thus: Anti-proliferative activity, CellTiter-Glo viability assay, 7 day protocol. It is filed as cell-based. As to conditions: Homo sapiens, MV4-11, 168 h, MV4:11 cells, 7 day incubation, read-out: GI50 on cellular proliferation of MV4:11 human cancer cell lines. The essentials:
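Luminescent CellTiter-Glo readout after 7-day compound exposure of MV4:11 cells plated at 3600 cells/ml (final DMSO 0.1%). GI50 derived from three biological × three technical replicates, reported as mean ± S.E.M.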

The target of test [2] is WDR5 (Homo sapiens (Human), UniProt P61964). The test can be described thus: TR-FRET binding assay (displacement of 10mer-Thr-FAM probe from WDR5). A general note: In TR-FRET formats the signal depends on donor and acceptor labels being close together.
The mark [3] stands for this setting: read-out: Ki for Inhibition of WDR5 by TR-FRET assay, TR-FRET, 10mer-Thr-FAM probe, WDR5-His tag 2 nM, pH 7.0.
Where [4] appears, read: read-out: Ki for Inhibition of WDR5 by TR-FRET assay.

Where two headings read alike, the source gives them in different places.

Turning to `COc1cc([C@@H](NC(=O)c2cc(CN3CCOC3=N)cc(-c3cccnc3C(F)(F)F)c2)C2CC2)ccc1F` [Example 305, (S)—N-(Cyclopropyl(4-fluoro-3-methoxyphenyl)methyl)-3-((2-iminooxazolidin-3-yl)methyl)-5-(2-(trifluoromethyl)pyridin-3-yl)benzamide], the GI50 in test [1] is below 100 nM. Also, the inhibition constant (Ki) in test [2] (setting [3]) is below 0.1 nM.
As to `COc1cc([C@@H](NC(=O)c2cc(Cn3ccoc3=N)cc(-c3cn(C)nc3C(F)(F)F)c2)C2CC2)ncc1F` [Example 306, (S)—N-(Cyclopropyl(5-fluoro-4-methoxypyridin-2-yl)methyl)-3-((2-iminooxazol-3(2H)-yl)methyl)-5-(1-methyl-3-(trifluoromethyl)-1H-pyrazol-4-yl)benzamide], in test [1], the GI50 was found to be 410 nM. The compound further came in with a Ki in test [2] below 0.1 nM.
As for `COc1cc(CNC(=O)c2cc(CN3CCSC3=N)cc(-c3ccc(F)cc3C)c2)cc(OC)c1` [Example 308, N-(3,5-Dimethoxybenzyl)-4′-fluoro-5-((2-iminothiazolidin-3-yl)methyl)-2′-methyl-[1,1′-biphenyl]-3-carboxamide], the GI50 in test [1] was 630 nM. Moreover, the Ki in test [2] (setting [4]) was 0.45 nM.
The matching figures for `N=C1SCCN1Cc1cc(C(=O)N[C@H](c2ccc(Cl)c(Cl)c2)C2CC2)cc(-c2ccc(F)cc2OC(F)F)c1` [Example 309, (S)—N-(Cyclopropyl(3,4-dichlorophenyl)methyl)-2′-(difluoromethoxy)-4′-fluoro-5-((2-iminothiazolidin-3-yl)methyl)-[1,1′-biphenyl]-3-carboxamide]: 960 nM and 0.77 nM.
For `Cn1cc(-c2cc(CN3CCSC3=N)cc(C(=O)N[C@H](c3ccc(Cl)c(Cl)c3)C3CC3)c2)c(C(F)(F)F)n1` [Example 310, (S)—N-(Cyclopropyl(3,4-dichlorophenyl)methyl)-3-((2-iminothiazolidin-3-yl)methyl)-5-(1-methyl-3-(trifluoromethyl)-1H-pyrazol-4-yl)benzamide] the same measures were 170 nM and below 0.1 nM.
For the compound `CCn1cc(-c2cc(CN3CCSC3=N)cc(C(=O)N[C@H](c3ccc(F)c(C)c3)C3CC3)c2)c(C(F)(F)F)n1` [Example 312, (S)—N-(Cyclopropyl (4-fluoro-3-methylphenyl)methyl)-3-(1-ethyl-3-(trifluoromethyl)-1H-pyrazol-4-yl)-5-((2-iminothiazolidin-3-yl)methyl)benzamide], the GI50 in test [1] is below 100 nM. For the same compound, in test [2] (setting [3]), the inhibition constant Ki is below 0.1 nM.
For `CCn1cc(-c2cc(Cn3ccsc3=N)cc(C(=O)N[C@H](c3ccc(F)c(C)c3)C3CC3)c2)c(C(F)(F)F)n1` [Example 320, (S)—N-(Cyclopropyl(4-fluoro-3-methylphenyl)methyl)-3-(1-ethyl-3-(trifluoromethyl)-1H-pyrazol-4-yl)-5-((2-iminothiazol-3(2H)-yl)methyl)benzamide] the same measures were below 100 nM and below 0.1 nM.
For `Cc1cc([C@@H](NC(=O)c2cc(Cn3ccsc3=N)cc(-c3cn(C)nc3C(F)(F)F)c2)C2CC2)ccc1F` [Example 321, (S)—N-(Cyclopropyl(4-fluoro-3-methylphenyl)methyl)-3-((2-iminothiazol-3(2H)-yl)methyl)-5-(1-methyl-3-(trifluoromethyl)-1H-pyrazol-4-yl)benzamide] the same measures were below 100 nM and below 0.1 nM.
For `Cc1cc([C@@H](NC(=O)c2cc(Cn3ccsc3=N)cc(-c3cn(C(C)C)nc3C(F)(F)F)c2)C2CC2)ccc1F` [Example 322, (S)—N-(Cyclopropyl(4-fluoro-3-methylphenyl)methyl)-3-((2-iminothiazol-3(2H)-yl)methyl)-5-(1-isopropyl-3-(trifluoromethyl)-1H-pyrazol-4-yl)benzamide], in test [1], the GI50 came out at 150 nM. In addition, the Ki in test [2] (setting [4]) was below 0.1 nM.

Usually Ki stands for a dissociation constant, usually derived from enzyme kinetics or from competition with a known ligand.

The values above are taken from patent US10844044B2 (Vanderbilt University, priority 2018, dated 2020).
